{"source": "patent US20090176817A1", "about": "“Method of Treatment of Diarrhea-Predominant Irritable Bowel Syndrome in a Subject” (priority 2005, published 2009)", "test_system": "diarrhea-predominant IBS subjects", "test": "Study S241.3.006: weekly diary questions on adequate relief", "assay_type": "in vivo, human", "conditions": "for Number of months a subject was a responder: One month (Abdominal pain/discomfort) / Number of months a subject was a responder: One month (Abnormal bowel habits) / Number of months a subject was a responder: One month (IBS symptoms) / Number of months a subject was a responder: Three months (Abdominal pain/discomfort) / Number of months a subject was a responder: Three months (Abnormal bowel habits) / Number of months a subject was a responder: Three months (IBS symptoms) / Number of months a subject was a responder: Two months (Abdominal pain/discomfort) / Number of months a subject was a responder: Two months (Abnormal bowel habits) / Number of months a subject was a responder: Two months (IBS symptoms) / Number of months a subject was a responder: Zero months (Abdominal pain/discomfort) / Number of months a subject was a responder: Zero months (Abnormal bowel habits) / Number of months a subject was a responder: Zero months (IBS symptoms): monthly LOCF", "protocol": "The study was conducted in 129 study centers in the United States. At total of 2080 subjects consented to participate, and 711 subjects were randomized. A total of 692 subjects were analyzed for efficacy and 701 subjects were analyzed for safety. Diagnosis and main criteria for inclusion were IBS subjects satisfying the Rome I criteria (1992); the diarrhea predominant sub-population of the Rome II criteria; and a minimum abdominal pain/discomfort, stool frequency and consistency determined during the run-in period. Subjects were treated with cilansetron 2 mg tablets given orally TID or matching placebo tablets given orally TID for 12 weeks double-blind treatment.\nThe primary efficacy parameter was the number of months that a subject was a responder for IBS symptoms (abdominal pain, abdominal discomfort, abnormal bowel habits) over the 12-week treatment period. A responder for a month (monthly responder) was defined as a subject who answered the weekly question with “yes” at least twice for that month.\nStudies S24 1.3.OO6, S24 1.3.0 1 1, and S24 1.3.009 used the following efficacy measurements: • The subjects answered the following three questions with “yes” or “no” using a phone diary at the end of each week: • a) During the last week, did you experience adequate relief of your IBS symptoms, such as abdominal pain, abdominal discomfort, abnormal bowel habits? • b) During the last week, did you experience adequate relief of your abdominal pain and/or discomfort? • c) During the last week, did you experience adequate relief of your abnormal bowel habits? • The subjects rated the following symptoms using the phone diary at the end of each day: • abdominal pain/discomfort (five-point scale); • stool consistency (seven-point Bristol Stool Scale); • stool frequency (number of bowel movements each day); • urgency (five-point scale); • straining (yes or no); • feeling of incomplete defecation (yes or no); • bloating or feeling of abdominal distension (five-point scale). • In Studies S241 A006 and S241.3.009, subjects completed the IBS-QOL Survey at Baseline (Day 1) and at the end of treatment. In Study S24 1.3.0 1 1, subjects completed the IBS-QOL Survey at Baseline (Day 1), at the end of the three-month treatment period, and at the end of rerandomized treatment.\nIn all three pivotal efficacy studies, the primary and main secondary efficacy parameters were based on the weekly diary questions on adequate relief and included the following: • 1. Number of months (one month equals four weeks) that a subject was a responder for the weekly diary questions on adequate relief. A responder for a month (monthly responder) was defined as a subject who answered the weekly question with “yes” at least twice for that month. For Studies S241.3.006 and S241.3.011, the primary efficacy parameter was the number of months that a subject was a responder for IBS symptoms during the 12-week treatment period. The two main secondary efficacy parameters were the number of months that a subject was a responder for abdominal pain/discomfort and abnormal bowel habits during the 12-week treatment period. For Study S241.3.009, the number of months that a subject was a responder for the weekly diary questions on adequate relief during Months 1 to 3 (the first 12 weeks) and Months 1 to 6 (24-week) was an additional key secondary efficacy parameter. • 2. Overall responder rate for the weekly diary questions on adequate relief. A responder was defined as a subject who answered the weekly question with “yes” for at least half of the answers available with a minimum of four weeks treatment duration. If a subject had less than four weeks treatment duration, the subject was considered a non-responder. The overall responder rate was the percentage of responders within a treatment group. For Study S241.3.009, the primary efficacy parameter was the overall responder rate for IBS symptoms during the 26-week treatment period. […]", "key": {"[1]": {"conditions": "Duration of IBS: >24 months to ≦48 months, 2 mg TID, observed case, ITT"}, "[2]": {"conditions": "Duration of IBS: >24 months to ≦48 months, three-month treatment period, ITT, 2 mg TID"}, "[3]": {"conditions": "Duration of IBS: >48 months to ≦120 months, 2 mg TID, observed case, ITT"}, "[4]": {"conditions": "Duration of IBS: >48 months to ≦120 months, three-month treatment period, ITT, 2 mg TID"}, "[5]": {"conditions": "Duration of IBS: >120 months, 2 mg TID, observed case, ITT"}, "[6]": {"conditions": "Duration of IBS: >120 months, three-month treatment period, ITT, 2 mg TID"}, "[7]": {"conditions": "Duration of IBS: ≦24 months, 2 mg TID, observed case, ITT"}}, "data": [{"smiles": "Cc1nccn1C[C@H]1CCc2c(c3cccc4c3n2CCC4)C1=O", "note": "[Cilansetron, (R)-(−)-4,5,6,8,9,10-hexahydro-10-[(2-methyl-1H-imidazol-1-yl)methyl]-11H-pyrido-[3,2,1-jk]-carbazol-11-one]", "values": [{"measurement": "Overall responder rate, adequate relief of abnormal bowel habits", "setting": "Baseline severity of IBS: severe, three-month treatment period, observed case, ITT, 2 mg TID", "value": "90 (46) n (%)"}, {"measurement": "Overall responder rate, abdominal pain/discomfort", "setting": "Caucasians", "value": 52, "unit": "%"}, {"measurement": "Number of subjects who were responders during the three-month treatment period: Adequate relief of IBS symptoms", "setting": "[1]", "value": "20 (47) n (%)"}, {"measurement": "Number of subjects who were responders during the three-month treatment period: Adequate relief of abdominal pain/discomfort", "setting": "[1]", "value": "22 (51) n (%)"}, {"measurement": "Number of subjects who were responders during the three-month treatment period: Adequate relief of abnormal bowel habits", "setting": "[1]", "value": "20 (47) n (%)"}, {"measurement": "Number of months a subject was a responder: One month (Abdominal pain/discomfort)", "setting": "[2]", "value": "8 (19) n (%)"}, {"measurement": "Number of months a subject was a responder: One month (Abnormal bowel habits)", "setting": "[2]", "value": "10 (23) n (%)"}, {"measurement": "Number of months a subject was a responder: One month (IBS symptoms)", "setting": "[2]", "value": "12 (28) n (%)"}, {"measurement": "Number of months a subject was a responder: Three months (Abdominal pain/discomfort)", "setting": "[2]", "value": "15 (35) n (%)"}, {"measurement": "Number of months a subject was a responder: Three months (Abnormal bowel habits)", "setting": "[2]", "value": "13 (30) n (%)"}, {"measurement": "Number of months a subject was a responder: Three months (IBS symptoms)", "setting": "[2]", "value": "14 (33) n (%)"}, {"measurement": "Number of months a subject was a responder: Two months (Abdominal pain/discomfort)", "setting": "[2]", "value": "6 (14) n (%)"}, {"measurement": "Number of months a subject was a responder: Two months (Abnormal bowel habits)", "setting": "[2]", "value": "7 (16) n (%)"}, {"measurement": "Number of months a subject was a responder: Two months (IBS symptoms)", "setting": "[2]", "value": "4 (9) n (%)"}, {"measurement": "Number of months a subject was a responder: Zero months (Abdominal pain/discomfort)", "setting": "[2]", "value": "14 (33) n (%)"}, {"measurement": "Number of months a subject was a responder: Zero months (Abnormal bowel habits)", "setting": "[2]", "value": "13 (30) n (%)"}, {"measurement": "Number of months a subject was a responder: Zero months (IBS symptoms)", "setting": "[2]", "value": "13 (30) n (%)"}, {"measurement": "Number of subjects who were responders during the three-month treatment period: Adequate relief of IBS symptoms", "setting": "[3]", "value": "54 (52) n (%)"}, {"measurement": "Number of subjects who were responders during the three-month treatment period: Adequate relief of abdominal pain/discomfort", "setting": "[3]", "value": "58 (56) n (%)"}, {"measurement": "Number of subjects who were responders during the three-month treatment period: Adequate relief of abnormal bowel habits", "setting": "[3]", "value": "54 (52) n (%)"}, {"measurement": "Number of months a subject was a responder: One month (Abdominal pain/discomfort)", "setting": "[4]", "value": "12 (12) n (%)"}, {"measurement": "Number of months a subject was a responder: One month (Abnormal bowel habits)", "setting": "[4]", "value": "12 (12) n (%)"}, {"measurement": "Number of months a subject was a responder: One month (IBS symptoms)", "setting": "[4]", "value": "15 (14) n (%)"}, {"measurement": "Number of months a subject was a responder: Three months (Abdominal pain/discomfort)", "setting": "[4]", "value": "40 (38) n (%)"}, {"measurement": "Number of months a subject was a responder: Three months (Abnormal bowel habits)", "setting": "[4]", "value": "37 (36) n (%)"}, {"measurement": "Number of months a subject was a responder: Three months (IBS symptoms)", "setting": "[4]", "value": "35 (34) n (%)"}, {"measurement": "Number of months a subject was a responder: Two months (Abdominal pain/discomfort)", "setting": "[4]", "value": "18 (17) n (%)"}, {"measurement": "Number of months a subject was a responder: Two months (Abnormal bowel habits)", "setting": "[4]", "value": "19 (18) n (%)"}, {"measurement": "Number of months a subject was a responder: Two months (IBS symptoms)", "setting": "[4]", "value": "19 (18) n (%)"}, {"measurement": "Number of months a subject was a responder: Zero months (Abdominal pain/discomfort)", "setting": "[4]", "value": "34 (33) n (%)"}, {"measurement": "Number of months a subject was a responder: Zero months (Abnormal bowel habits)", "setting": "[4]", "value": "36 (35) n (%)"}, {"measurement": "Number of months a subject was a responder: Zero months (IBS symptoms)", "setting": "[4]", "value": "35 (34) n (%)"}, {"measurement": "Number of subjects who were responders during the three-month treatment period: Adequate relief of IBS symptoms", "setting": "[5]", "value": "69 (47) n (%)"}, {"measurement": "Number of subjects who were responders during the three-month treatment period: Adequate relief of abdominal pain/discomfort", "setting": "[5]", "value": "72 (49) n (%)"}, {"measurement": "Number of subjects who were responders during the three-month treatment period: Adequate relief of abnormal bowel habits", "setting": "[5]", "value": "73 (50) n (%)"}, {"measurement": "Number of months a subject was a responder: One month (Abdominal pain/discomfort)", "setting": "[6]", "value": "15 (10) n (%)"}, {"measurement": "Number of months a subject was a responder: One month (Abnormal bowel habits)", "setting": "[6]", "value": "14 (10) n (%)"}, {"measurement": "Number of months a subject was a responder: One month (IBS symptoms)", "setting": "[6]", "value": "13 (9) n (%)"}, {"measurement": "Number of months a subject was a responder: Three months (Abdominal pain/discomfort)", "setting": "[6]", "value": "59 (40) n (%)"}, {"measurement": "Number of months a subject was a responder: Three months (Abnormal bowel habits)", "setting": "[6]", "value": "57 (39) n (%)"}, {"measurement": "Number of months a subject was a responder: Three months (IBS symptoms)", "setting": "[6]", "value": "51 (35) n (%)"}, {"measurement": "Number of months a subject was a responder: Two months (Abdominal pain/discomfort)", "setting": "[6]", "value": "19 (13) n (%)"}, {"measurement": "Number of months a subject was a responder: Two months (Abnormal bowel habits)", "setting": "[6]", "value": "19 (13) n (%)"}, {"measurement": "Number of months a subject was a responder: Two months (IBS symptoms)", "setting": "[6]", "value": "22 (15) n (%)"}, {"measurement": "Number of months a subject was a responder: Zero months (Abdominal pain/discomfort)", "setting": "[6]", "value": "53 (36) n (%)"}, {"measurement": "Number of months a subject was a responder: Zero months (Abnormal bowel habits)", "setting": "[6]", "value": "56 (38) n (%)"}, {"measurement": "Number of months a subject was a responder: Zero months (IBS symptoms)", "setting": "[6]", "value": "60 (41) n (%)"}, {"measurement": "Number of subjects who were responders during the three-month treatment period: Adequate relief of IBS symptoms", "setting": "[7]", "value": "25 (49) n (%)"}, {"measurement": "Number of subjects who were responders during the three-month treatment period: Adequate relief of abdominal pain/discomfort", "setting": "[7]", "value": "27 (53) n (%)"}]}]}
